The values that follow come from patent US9173871B2, “Oxazole and thiazole compounds as beta-catenin modulators and uses thereof” (New York University, priority 2008, dated 2015).

For one assay, the system named is AR nascent mRNA. Briefly: Q-PCR of nascent AR mRNA in LNCaP cells. It counts as cell-based. The settings on record: 20 μM, four hours, presence or absence of R1881. On the procedure: RNA was extracted, treated with deoxyribonuclease and subjected to cDNA synthesis. Relative levels of nascent AR mRNA were analyzed by Q-PCR using primers flanking exon/exon and exon/intron.

In assay [1] the test system is AR and β-catenin target genes in LNCaP cells. In words: Q-PCR of AR and β-catenin target genes in LNCaP cells. It counts as cell-based. The settings on record: 20 μM, 24 hr. From the text: Samples are normalized to RPL19 and E-cadherin and GAPDH are included as controls.
While β-catenin can act as an AR coactivator [Song et al., J Biol Chem, 2005. 280(45): 37853-67], AR mRNA levels are also directly regulated by TCF binding sites in the AR promoter [Yang et al., Oncogene, 2006. 25(24): 3436-44]. […] AR mRNA was quantified along with well-characterized AR target genes, Nkx3.1 and PSA. In addition, CDC20, CDK1 and UBE2C, M phase cell cycle regulatory genes that are AR targets in LNCaP-abl cells were examined [Wang et al., Cell, 2009. 138(2): 245-56]. Levels of c-myc were also examined since c-myc is a known Wnt/β-catenin target gene and assessment of information available through the Memorial Sloan Kettering cBio Cancer Genomics portal [Taylor et al., Cancer Cell, 2010. […] E-cadherin and GAPDH are not affected by C3 treatment.

A further assay concerns HCT116 cells. Briefly: Flow cytometry cell cycle analysis of HCT116 cells. The settings on record: HCT116, 16 hrs, FIG. 9. The format is cell-based. As to the method:
In order to test the inhibitory effect of candidate compounds on the transcription of endogenous Wnt/β-cat target genes in HCT116 cells, lysates were prepared from cells that were either treated with candidate small molecules or DMSO control. […] Cell cycle arrest of compound treated HCT116 cells was further confirmed by the reduced number of phosphorylated Histone3 (PH3) positive cells, when cultured in the presence of candidate compounds (FIG. 10).
Flow Cytometry analysis was performed on HCT116 cells treated with candidate compounds for 16 hrs per standard protocols. Briefly, compound treated cells were harvested and washed in 1×PBS followed by fixation in 70% Ethanol at 4° C. for 16 hrs. Cells were then washed in 1×PBS and treated with RNAse at 37° C. for 30′. Following extensive washes in 1×PBS, cellular DNA was stained with 500 ug/ml of Propidium Iodide at room temperature for 10′. Cells were washed again in 1×PBS and analysed by flow cytometry on a FACScalibur machine (Beckson Dickinson) at the NYU flow cytometry core facility.

For assay [2], the system named is ARE-LUC androgen responsive reporter gene in LNCaP. In words: AR responsive luciferase reporter (ARE-LUC / LB1-LUC) in LNCaP cells. It counts as cell-based. On the procedure: (§1) LNCaP or LNCaP-abl (ABL) cells were cotransfected with 0.1 μg β-galactosidase and 0.2 μg S37A stabilized β-catenin together with the indicated luciferase reporter constructs; STF16-LUC (β-catenin reporter) and LB1-LUC (AR reporter). […] Luciferase activity was normalized to β-galactosidase expression.
(§2) To determine the IC50 for the β-catenin/Wnt-responsive reporter, cells were cotransfected with β-galactosidase (LacZ) and a constitutively active S37A stabilized β-catenin mutant construct together with the reporter construct, STF16-LUC. To determine the IC50 for the AR-responsive construct, cells were cotransfected with LacZ and the AR responsive reporter construct, ARE-LUC. […] B) AR overexpression circumvents C3 repression of AR-responsive transcription. LNCaP cells were cotransfected with 0.1 μg LacZ and 0.2 μg of the AR responsive reporter construct, ARE-LUC, together with 0, 0.05, 0.1 and 0.2 μg of an AR expression vector. […] Luciferase activity was normalized to LacZ expression.
(§3) 108(15): 5954-63], it had not been determined in prostate cancer cells. […] 69(8): 3332-8].

Assay [3] has as its system AR, PSA, c-myc, CDK1, UBE2C protein in LNCaP cells. Briefly: Western blot time course of AR and β-catenin target proteins in LNCaP cells. The format is cell-based. On the procedure: ABL cells were treated similarly, but cultured in 5% charcoal-stripped phenol-red free RPMI. The mRNA was extracted at each time point and relative levels of indicated genes were analyzed by Q-PCR and normalized to RPL19. B) Protein from LNCaP cells was analyzed at each time point and immunoblotted with indicated antibodies.
Expression of tubulin (included as an internal loading control) and β-catenin were unaffected.

A further assay relates to VCaP cells. Briefly: Growth of VCaP cells. It counts as cell-based. The settings on record: 20 μM daily.
A further assay deals with LNCaP-abl tumors. Briefly: LNCaP-abl xenograft model of castration-resistant prostate cancer in nude mice. It counts as in vivo. The settings on record: 100 mg/kg daily, intraperitoneal then intratumor injection, FIG. 23. On the procedure: Tumor volumes were measured twice weekly.
The cell types for xenograft studies include LNCaP, LNCaP-abl and VCaP, which have all been previously utilized for xenograft studies and are able to recur following castration [Korenchuk et al., In Vivo, 2001. 15(2): 163-8; Culig et al., Br J Cancer, 1999. 81(2): 242-51; Graff et al., J Biol Chem, 2000. 275(32): 24500-5]. VCaP cells harbor a wild type androgen receptor and are androgen-dependent for growth [van Bokhoven et al., Prostate, 2003. 57(3): 205-25]. Other characteristics of cells to be considered in such experiments include the mutational status of AR, pTEN, p53, ETS fusion, and the year derived. Following determination of the MTD, 5×10^6 cells are mixed with an equal volume of Matrigel (BD Biosciences) and injected subcutaneously into the right and left flank of a BALB/c nu/nu outbred mouse. […] To assay growth, tumors are measured with Vernier calipers, and the total volume determined by using the formula 0.52×width×height×depth. Tumor growth is measured twice weekly and animals are also weighed twice weekly to assess toxicity.
Methods: Rapidly cycling LNCaP-abl cells (15×10^6) were mixed with an equal volume of Matrigel and injected subcutaneously into the flank region of nude male mice. […] To assess growth, tumors were measured twice weekly with Vernier calipers, and the total volume was determined.

Assay [4] relates to ARE-LUC androgen responsive reporter gene in LNCaP-abl. In words: AR responsive luciferase reporter (ARE-LUC / LB1-LUC) in LNCaP-abl cells. The format is cell-based. As to the method:
as §1, §2, §3

Regarding `CCc1ccc(-c2nc(CSCC(=O)NCCc3ccccc3)c(C)o2)cc1` [Compound C3], the “levels of newly synthesized AR mRNA” value in the assay with AR nascent mRNA is on record as “diminishes”. In assay [1], the “mRNA of E-cadherin and GAPDH (controls)” value was “not affected”. The “mRNA of AR, NR×3.1, CDC20, PSA, CDK1, c-myc and UBE2C” value in assay [1] (with or without R1881) is “diminished”. The cell cycle effect entry in the assay with HCT116 cells is reported as “G0/G1 arrest”. Besides, the IC50 worked out at 1440 nM in assay [2] (LNCaP (first of two values)) and 1610 nM in assay [4] (LNCaP-abl (second of two values)). Besides, the “AR reporter gene activity (LB1-LUC)” value in assay [2] (LNCaP, 20 uM, 24 hr) is recorded as “inhibits”; in assay [4] (LNCaP-abl, 20 uM, 24 hr) it was “inhibits”. Moreover, the “expression of tubulin and β-catenin protein” value in assay [3] was “unaffected”. Further, the “levels of AR, PSA, c-myc, CDK1 and UBE2C protein” value in assay [3] (especially at 48-hour time point) is listed as “diminished levels”. Besides, in the assay on VCaP cells, the cell growth entry is listed as “completely abolished”. Besides, the tumor volume result in the assay on LNCaP-abl tumors was “reduced tumor volume to a statistically significant degree”.
